We go through 19 compounds from US10611778B2, “Fused bicyclic inhibitors of menin-MLL interaction” (Janssen Pharmaceutica NV, priority 2016, dated 2020).

Each structure is given as a SMILES string.

For test [1], the target named is T1, Menin/MLL (menin, FITC-MBM1 peptide) (Homo sapiens, UniProt O00255, T541A).
T1 construct: 6xHis (C)
T1 sequence (O00255 with tags, fused parts or gaps T541A): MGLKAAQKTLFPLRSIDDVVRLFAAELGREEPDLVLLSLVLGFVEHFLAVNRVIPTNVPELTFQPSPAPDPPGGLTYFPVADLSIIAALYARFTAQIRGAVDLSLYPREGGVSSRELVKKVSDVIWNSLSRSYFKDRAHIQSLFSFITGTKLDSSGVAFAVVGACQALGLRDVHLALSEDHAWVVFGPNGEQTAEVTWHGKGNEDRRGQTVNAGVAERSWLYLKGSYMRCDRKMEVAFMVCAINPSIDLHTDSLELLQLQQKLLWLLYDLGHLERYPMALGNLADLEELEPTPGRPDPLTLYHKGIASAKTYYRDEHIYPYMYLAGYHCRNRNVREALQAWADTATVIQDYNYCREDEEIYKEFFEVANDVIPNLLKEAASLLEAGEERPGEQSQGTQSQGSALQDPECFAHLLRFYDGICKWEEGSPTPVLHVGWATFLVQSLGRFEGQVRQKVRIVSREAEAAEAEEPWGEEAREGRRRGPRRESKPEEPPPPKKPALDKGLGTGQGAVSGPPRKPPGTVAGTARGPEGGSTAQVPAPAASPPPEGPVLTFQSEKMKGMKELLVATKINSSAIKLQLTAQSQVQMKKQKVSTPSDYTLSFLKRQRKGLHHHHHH
The experiment in a line: Menin/MLL fluorescence polarization (FP) assay. Format: binding. The following applies: averaged values over all measurements; read-out: Menin FP assay (IC50). As for the experimental part: Pharmacological Part 1) Menin/MLL Fluorescence Polarization Assay
To a non-surface binding, black 384-well microtiter plate was added 50 nL 160× test compound in DMSO and 4 μL 2× menin in assay buffer (40 mM Tris-HCl, pH 7.5, 50 mM NaCl, 1 mM DTT and 0.001% Tween 20). After incubation of test compound and menin for 10 min at ambient temperature, 4 μL 2×FITC-MBM1 peptide (FITC-β-alanine-SARWRFPARPGT-NH2) in assay buffer was added, the microtiter plate centrifuged at 1000 rpm for 1 min and the assay mixtures incubated for 15 min at ambient temperature. The relative amount of menin: FITC-MBM1 complex present in an assay mixture is determined by measuring the fluorescence polarization (FP) of the FITC label with a BMG Pherastar plate reader (ex. 485 nm/em. 520 nm) at ambient temperature. The final concentrations of reagents in the binding assay are 100 nM menin, 5 nM FITC-MBM1 peptide and 0.625% DMSO in assay buffer. Dose-response titrations of test compounds are conducted using an 11 point, three-fold serial dilution scheme, starting at 31 μM.
Compound potencies were determined by first calculating % inhibition at each compound concentration according to equation 1: % inhibition=((HC−LC)−(FP^compound−LC))/(HC−LC))*100 (Eqn 1)
Where LC and HC are the FP values of the assay in the presence or absence of a saturating concentration of a compound that competes with FITC-MBM1 for binding to menin, and FP^compound is the measured FP value in the presence of the test compound. HC and LC FP values represent an average of at least 16 replicates per plate.
(§1) Where Bottom and Top are the lower and upper asymptotes of the dose-response curve, respectively, IC50 is the concentration of compound that yields 50% inhibition of signal and h is the Hill coefficient.

For test [2], the target named is T2, Menin/MLL (terbium chelate-labeled menin, FITC-MBM1 peptide) (Homo sapiens, UniProt O00255, T541A).
T2 construct: Menin (a.a. 1-610-6×his tag) was labeled with terbium cryptate as follows
T2 sequence (O00255 with tags, fused parts or gaps T541A): T1 sequence (O00255 with tags, fused parts or gaps T541A)
The experiment in a line: Menin/MLL homogenous time-resolved fluorescence (HTRF) assay. The following applies: averaged values over all measurements; read-out: Menin HTRF assay (IC50). Format: binding. As for the experimental part: 3) Menin/MLL Homogenous Time-Resolved Fluorescence (HTRF) Assay
To an untreated, white 384-well microtiter plate was added 40 nL 200× test compound in DMSO and 4 μL 2× terbium chelate-labeled menin (vide infra for preparation) in assay buffer (40 mM Tris-HCl, pH 7.5, 50 mM NaCl, 1 mM DTT and 0.05% Pluronic F-127). After incubation of test compound and terbium chelate-labeled menin for 5 min at ambient temperature, 4 μL 2×FITC-MBM1 peptide (FITC-β-alanine-SARWRFPARPGT-NH2) in assay buffer was added, the microtiter plate centrifuged at 1000 rpm for 1 min and the assay mixtures incubated for 15 min at ambient temperature. The relative amount of menin⋅FITC-MBM1 complex present in an assay mixture is determined by measuring the homogenous time-resolved fluorescence (HTRF) of the terbium/FITC donor/acceptor fluorophore pair using a BMG Pherastar plate reader (ex. 337 nm/terbium em. 490 nm/FITC em. 520 nm) at ambient temperature. The degree of fluorescence resonance energy transfer (the HTRF value) is expressed as the ratio of the fluorescence emission intensities of the FITC and terbium fluorophores (F^em 520 nm/F^em 490 nm). The final concentrations of reagents in the binding assay are 100 pM terbium chelate-labeled menin, 75 nM FITC-MBM1 peptide and 0.5% DMSO in assay buffer. Dose-response titrations of test compounds are conducted using an 11 point, three-fold serial dilution scheme, starting at 31 μM.
Compound potencies were determined by first calculating % inhibition at each compound concentration according to equation 1: % inhibition=((HC−LC)−(HTRF^compound−LC))/(HC−LC))*100 (Eqn 1)
Where LC and HC are the HTRF values of the assay in the presence or absence of a saturating concentration of a compound that competes with FITC-MBM1 for binding to menin, and HTRF^compound is the measured HTRF value in the presence of the test compound. HC and LC HTRF values represent an average of at least 16 replicates per plate.
as §1
Preparation of Terbium cryptate labeling of Menin: Menin (a.a. 1-610-6×his tag) was labeled with terbium cryptate as follows. 2 mg of Menin was buffer exchanged into 1× phosphate buffered saline. 16 uM Menin was incubated with 4-fold molar excess NHS-terbium cryptate (Cisbio Bioassays, Bedford, Mass.) for 2 hours at room temperature. The labeled protein was purified away from free label by running the reaction over a Superdex 200 Increase 10/300 GL column at 0.75 ml/min. Peak fractions were collected, aliquoted and frozen at −80° C.

Test [3] relates to MV-4-11. The experiment in a line: Proliferation assay (spheroid assay) MV-4-11. It counts as cell-based, human. The following applies: Homo sapiens, MV4-11, MV-4-11; averaged values over all measurements; read-out: Spheroid assay MV-4-11 (IC50). As for the experimental part: (§2) The anti-proliferative effect of menin/MLL protein/protein interaction inhibitor test compounds was assessed in human leukemia cell lines. The cell lines MV-4-11 and MOLM14 harbor MLL translocations and express the MLL fusion proteins MLL-AF4 and MLL-AF9, respectively, as well as the wildtype protein from the second allele. […] K562 and KG1 were used as a control cell lines containing two MLL wildtype alleles in order to exclude compounds that display general cytotoxic effects.
(§3) MV-4-11 and MOLM14 were cultured in RPMI-1640 (Sigma Aldrich) supplemented with 10% fetal bovine serum (HyClone), 2 mM L-glutamine (Sigma Aldrich) and 50 μg/ml gentamycin (Gibco). K562 were propagated in RPMI-1640 (Sigma Aldrich) supplemented with 20% fetal bovine serum (HyClone), 2 mM L-glutamine (Sigma Aldrich) and 50 μg/ml gentamycin (Gibco). KG1 were cultured in Iscove's MDM (Gibco) supplemented with 20% fetal bovine serum (HyClone), 2 mM L-glutamine (Sigma Aldrich) and 50 μg/ml gentamycin (Gibco).
(§4) In order to assess the anti-proliferative effects, 1,500 MV-4-11, 300 MOLM14, 750 K562 or 1,300 KG1 cells were seeded in 200 μl media per well in 96-well round bottom, ultra-low attachment plates (Costar, catalogue number 7007). Cell seeding numbers were chosen based on growth curves to ensure linear growth throughout the experiment. Test compounds were added at different concentrations and the DMSO content was normalized to 0.3%. Cells were incubated for 8 d at 37° C. and 5% CO2. Spheroid like growth was monitored in real-time by live-cell imaging (IncuCyteZOOM, Essenbio, 4× objective) acquiring one image every four hours for 8 d. Confluence (%) as a measure of spheroid size was determined using an integrated analysis tool.
(§5) In order to determine the cumulative effect of the test compounds over time, the area under the curve (AUC) in a plot of confluence against time was calculated. Confluence at the beginning of the experiment (t=0) was used as baseline for the AUC calculation.
(§6) Absolute IC50 values were calculated according to the following procedure: % Control=(AUC sample/AUC control)*100
(§7) AUC control=mean AUC of control values (cells without compound/DMSO as vehicle control)
(§8) A non-linear curve fit was applied using the least squares (ordinary) fit method to the plot of % control versus compound concentration. Based on this, the absolute IC50 value (half maximal inhibitory concentration of the test compound causing an anti-proliferative effect of 50% relative to the vehicle control) was calculated.

Test [4] deals with MOLM14. The experiment in a line: Proliferation assay (spheroid assay) MOLM14. Format: cell-based, human. The note with it: Homo sapiens, MOLM-14, MOLM14; averaged values over all measurements; read-out: Spheroid assay MOLM14 (IC50). The procedure: as §2, §3, §4, §5, §6, §7, §8

For `Cn1ccc(CN2CC[C@@H]3CN(c4ncnc5sc(CC(F)(F)F)cc45)CC[C@@H]32)n1` (single isomer, unassigned) [Compound 14], the IC50 in test [1] came out at 1120 nM. Take `FC(F)(F)Cc1cc2c(N3C[C@H]4CN(Cc5ccccc5)[C@H]4C3)ncnc2s1` [Compound 33]: the values for the IC50 in test [2] and in test [1] were 2100 nM and 1190 nM, respectively.

Consider `Cn1cc(CN2CC3CCN(c4ncnc5sc(CC(F)(F)F)cc45)CC3C2)cn1` (centres unmarked) [Compound 34], for which the IC50 in test [2] is 1980 nM; in test [1] it was 780 nM. As to `O=S(=O)(c1ccccc1)N1CC[C@@H]2CN(c3ncnc4sc(CC(F)(F)F)cc34)CC[C@@H]21` [Compound 16], the IC50 in test [1] came to 1530 nM. As to `CC(C)CN1CC[C@H]2CN(c3ncnc4sc(CC(F)(F)F)cc34)C[C@H]21` (single isomer, unassigned) [Compound 28B], the IC50 in test [2] stood at 2490 nM; in test [1] it was 1380 nM.

Regarding `NCCn1cc(CN2CCC3CN(c4ncnc5sc(CC(F)(F)F)cc45)CCC32)cn1` (centres unmarked) [Compound 26], the values for the IC50 in test [2], in test [3] and in test [4] were 54 nM, 4700 nM and 5600 nM, respectively.

`Cn1cc(CN2CCCC3C2CCN3c2ncnc3sc(CC(F)(F)F)cc23)cn1` (centres unmarked) [Compound 21]: the IC50 in test [2] stood at 2120 nM; in test [1], 1770 nM. In the case of `Cn1cc(CN2CC[C@@H]3CN(c4ncnc5sc(CC(F)(F)F)cc45)C[C@@H]32)cn1` [Compound 27A], the half-inhibitory concentration (IC50) in test [2] was 10000 nM; in test [1], 4540 nM. Regarding `O=S(=O)(c1ccccc1)N1CC[C@H]2CN(c3ncnc4sc(CC(F)(F)F)cc34)CC[C@H]21` (single isomer, unassigned) [Compound 17], in test [1], the IC50 was 1850 nM. For the compound `FC(F)(F)Cc1cc2c(N3C[C@H]4CCN(CCC5CCOCC5)C[C@H]4C3)ncnc2s1` (single isomer, unassigned) [Compound 59], the IC50 in test [2] was 212 nM; in test [3] it was 1800 nM. In the same order, the values of `Nc1ccc(CN2CC[C@@H]3CN(c4ncnc5sc(CC(F)(F)F)cc45)C[C@@H]3C2)cn1` (single isomer, unassigned) [Compound 105] are 11 nM and 220 nM.

On to `Cn1ccc(CN2CC[C@@H]3CN(c4ncnc5sc(CC(F)(F)F)cc45)C[C@@H]3C2)cc1=O` (single isomer, unassigned) [Compound 68], for which the results for the IC50 in test [2] and in test [3] were 266 nM and 2900 nM, respectively.

As to `FC(F)(F)Cc1cc2c(N3C[C@H]4CCN(Cc5ccc(C6CC6)nc5)C[C@H]4C3)ncnc2s1` (single isomer, unassigned) [Compound 89], the IC50 came to 24 nM in test [2] and 240 nM in test [3]. In the same order, the values of `FC(F)(F)Cc1cc2c(N3C[C@H]4CCN(Cc5cncc(Cl)c5)C[C@H]4C3)ncnc2s1` (single isomer, unassigned) [Compound 43] are 97 nM and 1300 nM. In the same order, the values of `FC(F)(F)Cc1cc2c(N3C[C@H]4CCN(Cc5cnsc5)C[C@H]4C3)ncnc2s1` (single isomer, unassigned) [Compound 52] are 41 nM and 860 nM. With `FC(F)(F)Cc1cc2c(N3CCC4C(CCN4Cc4ncc[nH]4)C3)ncnc2s1` (centres unmarked) [Compound 22], the IC50 in test [1] was 2410 nM. With `O=C(C1CCCOC1)N1CCC(CN2CC[C@@H]3CN(c4ncnc5sc(CC(F)(F)F)cc45)C[C@@H]3C2)CC1` (single isomer, unassigned) [Compound 92], the values for the IC50 in test [2] and in test [3] were 14 nM and 450 nM, respectively. In the case of `CC(=O)N1CCC(CN2CC[C@@H]3CN(c4ncnc5sc(CC(F)(F)F)cc45)C[C@@H]3C2)CC1` (single isomer, unassigned) [Compound 76], the results for the IC50 in test [2] and in test [3] were 105 nM and 2900 nM, respectively. For `CC(C)(C)CC(=O)N1CCC(CN2CC[C@@H]3CN(c4ncnc5sc(CC(F)(F)F)cc45)C[C@@H]3C2)CC1` (single isomer, unassigned) [Compound 93], in that order: 20 nM and 580 nM.
